Molecules are shown by their SMILES.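 Compound exposure: 48 hours, 5 concentrations, 96-well plates. GI50 is the concentration that inhibits growth by half. TGI: total growth inhibition.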

The results in this text go back to PubChem BioAssay (NCI).

For one test, the system named is RXF 393 renal. In words: NCI anticancer screen, dose series, 48 h.
The compound `Clc1ccc(C(c2ccc(Cl)cc2)c2ccccn2)cc1` returned a TGI of 28.2 µM.

`O=c1cc(-c2ccccc2)oc2cc(OCCCOc3ccc4c(=O)cc(-c5ccccc5)oc4c3)ccc12`: the TGI was above 100 µM.

Another test relates to MALME-3M melanoma. The test is described as follows: NCI anticancer screen, dose series, 48 h.
Regarding `CCOC(=O)NC(=O)c1cn(CCCO)c(=O)[nH]c1=O`, the TGI was above 100 µM.

Compound `CCN1c2ccccc2C(C(SC)S(=O)(=O)c2ccc(C)cc2)c2c1[nH]c(=O)n(C)c2=O` (configuration not stated) yielded a TGI above 100 µM.

Regarding `Cc1cc(-c2ccc3nc(C4CCOCC4)n(CCOC(F)(F)F)c3c2)cn(C)c1=O`, the TGI is 5.16 µM.

Turning to `COc1cc(C2c3cc4c(cc3OC(C)(O)C2C)OCO4)cc(OC)c1OC` (configuration not stated), the TGI is above 100 µM.

Regarding `CCCCCCN(CCCCCC)C(=O)Cc1c2n(c3ccccc13)Cc1ccccc1-2`, the TGI was above 100 µM.

The compound `Brc1ccccc1C1SCc2nc3ccccc3n21` (configuration not stated) came in with a TGI of 48 µM.

`Cn1c2ccccc2c2cc(-c3ccccc3)c3c(c21)C(=O)c1ccccc1C3=O`: the TGI is 49.6 µM.

The compound `CN(C)c1ccc(/C=C(\NC(=O)c2ccccc2)c2nc3ncncc3[nH]2)cc1` returned a TGI above 100 µM.

For the compound `CC1=CC(O)(c2ccc(-c3ccccc3Cl)cc2)OC1=O` (configuration not stated), the TGI was above 100 µM.

With `CC[C@H](Nc1ncnc2nc[nH]c12)c1oc2ccccc2c(=O)c1-c1cccc(F)c1`, the GI50 is 25.1 µM and the TGI is above 100 µM.

Regarding `CCOC(=O)CC(=O)ON(C)C(C)=O`, the TGI is above 100 µM.

`CCc1cc(Cc2cc(CC)c(NC(=O)C(=O)Cc3ccccn3)c(CC)c2Cl)c(Cl)c(CC)c1NC(=O)C(=O)Cc1ccccn1` yielded a TGI above 100 µM.

For the compound `CC(C)OP(=O)(OC(C)C)C(=NCCN=C(NNc1ccc([N+](=O)[O-])cc1)P(=O)(OC(C)C)OC(C)C)NNc1ccc([N+](=O)[O-])cc1`, the TGI is above 100 µM.

Consider `O=S1(=O)OCCOS(=O)(=O)C1Br`, for which the TGI is above 100 µM.

As to `C#CC1(O)CCC2C3CCc4cc(Oc5nc(F)nc(-c6c7ccccc7c7sc8ccccc8n67)n5)ccc4C3CC[C@@]21C` (some centres not stated), the TGI was above 100 µM.

`CC(=O)/C(=C\c1cccc([N+](=O)[O-])c1)C(=O)Nc1ccccc1C` yielded a TGI above 100 µM.

The compound `Clc1ccc(C(c2ccc(Cl)cc2)c2ccccn2)cc1` gave a TGI of 41.2 µM.

Turning to `O=c1cc(-c2ccccc2)oc2cc(OCCCOc3ccc4c(=O)cc(-c5ccccc5)oc4c3)ccc12`, the TGI was above 100 µM.

The next test relates to M14 melanoma. The test is described as follows: NCI anticancer screen, dose series, 48 h.
Regarding `CCOC(=O)NC(=O)c1cn(CCCO)c(=O)[nH]c1=O`, the TGI was above 100 µM.

Compound `CCCCCCN(CCCCCC)C(=O)Cc1c2n(c3ccccc13)Cc1ccccc1-2` gave a TGI above 100 µM.

Take `CC(=O)[C@@]12O[C@@H]1CC1C3CCC4=CC(O)CCC4(C)C3CCC12C` (some centres not stated): the GI50 is 95.9 µM and the TGI was above 100 µM.

Compound `Brc1ccccc1C1SCc2nc3ccccc3n21` (configuration not stated) came in with a TGI of 31.4 µM.

Regarding `ClCc1cccc(Cn2cnc3ncnc(Cl)c32)c1`, the GI50 is 3.05 µM and the TGI worked out at 14.6 µM.

On to `OCC#Cc1ccccc1C#Cc1ccccc1`, for which the GI50 was 10.6 µM and the TGI worked out at 22.5 µM.

`Cn1c2ccccc2c2cc(-c3ccccc3)c3c(c21)C(=O)c1ccccc1C3=O` returned a TGI of 33.4 µM.

Take `CN(C)c1ccc(/C=C(\NC(=O)c2ccccc2)c2nc3ncncc3[nH]2)cc1`: the TGI was above 100 µM.

The compound `CC1=CC(O)(c2ccc(-c3ccccc3Cl)cc2)OC1=O` (configuration not stated) registered a TGI above 100 µM.

In the case of `O=C(Nc1ccc(Cl)cc1)c1cccc(NC2=C(Cl)C(=O)N(Cc3ccccc3)C2=O)c1`, the GI50 was 14.5 µM and the TGI turned out to be 72.8 µM.

Regarding `CC[C@H](Nc1ncnc2nc[nH]c12)c1oc2ccccc2c(=O)c1-c1cccc(F)c1`, the GI50 was 28.1 µM and the TGI is above 100 µM.

`CCOC(=O)CC(=O)ON(C)C(C)=O` gave a TGI above 100 µM.

`COc1cc(NCc2ccc3oc(=O)c(-c4ccccc4)nc3c2)cc(OC)c1OC` returned a TGI above 10 µM.

In turn, `CCc1cc(Cc2cc(CC)c(NC(=O)C(=O)Cc3ccccn3)c(CC)c2Cl)c(Cl)c(CC)c1NC(=O)C(=O)Cc1ccccn1` displayed a TGI above 100 µM.

As to `CC(C)OP(=O)(OC(C)C)C(=NCCN=C(NNc1ccc([N+](=O)[O-])cc1)P(=O)(OC(C)C)OC(C)C)NNc1ccc([N+](=O)[O-])cc1`, the TGI is above 100 µM.

Turning to `COC(OC)C(C)CC(=O)N(C)C` (configuration not stated), the TGI is above 100 µM.

`O=S1(=O)OCCOS(=O)(=O)C1Br` displayed a TGI above 100 µM.

Turning to `C#CC1(O)CCC2C3CCc4cc(Oc5nc(F)nc(-c6c7ccccc7c7sc8ccccc8n67)n5)ccc4C3CC[C@@]21C` (some centres not stated), the TGI is 98.3 µM.

`CC(=O)/C(=C\c1cccc([N+](=O)[O-])c1)C(=O)Nc1ccccc1C` returned a TGI above 100 µM.

`Clc1ccc(C(c2ccc(Cl)cc2)c2ccccn2)cc1` displayed a TGI of 38 µM.

`O=c1cc(-c2ccccc2)oc2cc(OCCCOc3ccc4c(=O)cc(-c5ccccc5)oc4c3)ccc12` had a TGI above 100 µM.

The subject of the next test is SF-539 CNS. The test is described as follows: NCI anticancer screen, dose series, 48 h.
Compound `CCOC(=O)NC(=O)c1cn(CCCO)c(=O)[nH]c1=O` showed a TGI above 100 µM.

In turn, `CCN1c2ccccc2C(C(SC)S(=O)(=O)c2ccc(C)cc2)c2c1[nH]c(=O)n(C)c2=O` (configuration not stated) displayed a TGI above 100 µM.

With `COc1cc(/C=C2\CN(S(=O)(=O)c3ccccc3)C/C(=C\c3cc(CN4CCCC4)c(O)c(OC)c3)C2=O)cc(CN2CCCC2)c1O`, the GI50 is 1.64 µM and the TGI amounted to 3.31 µM.

`COc1cc(C2c3cc4c(cc3OC(C)(O)C2C)OCO4)cc(OC)c1OC` (configuration not stated): the TGI was found to be 0.888 µM.

Consider `COc1ccc([C@H]2[C@@H](F)C(=O)N2c2cc(OC)c(OC)c(OC)c2)cc1F`, for which the GI50 is 0.028 µM and the TGI turned out to be 0.217 µM.

Compound `CCCCCCN(CCCCCC)C(=O)Cc1c2n(c3ccccc13)Cc1ccccc1-2` had a TGI above 100 µM.

As for `CC(=O)[C@@]12O[C@@H]1CC1C3CCC4=CC(O)CCC4(C)C3CCC12C` (some centres not stated), the GI50 is 39 µM and the TGI was above 100 µM.

Regarding `Brc1ccccc1C1SCc2nc3ccccc3n21` (configuration not stated), the TGI is 33 µM.

Take `ClCc1cccc(Cn2cnc3ncnc(Cl)c32)c1`: the GI50 is 19.9 µM and the TGI is 36 µM.

For the compound `Cn1c2ccccc2c2cc(-c3ccccc3)c3c(c21)C(=O)c1ccccc1C3=O`, the TGI is 49.2 µM.

For the compound `CN(C)c1ccc(/C=C(\NC(=O)c2ccccc2)c2nc3ncncc3[nH]2)cc1`, the TGI was above 100 µM.

With `CC1=CC(O)(c2ccc(-c3ccccc3Cl)cc2)OC1=O` (configuration not stated), the TGI is above 100 µM.

For the compound `O=C(Nc1ccc(Cl)cc1)c1cccc(NC2=C(Cl)C(=O)N(Cc3ccccc3)C2=O)c1`, the GI50 is 4.18 µM and the TGI came out at 19.1 µM.

With `CC[C@H](Nc1ncnc2nc[nH]c12)c1oc2ccccc2c(=O)c1-c1cccc(F)c1`, the GI50 was 31.4 µM and the TGI is above 100 µM.
